“Also recorded” adds a separate entry of the source. Like-named read-outs stand apart in the source and are kept apart here.

Assay [1] concerns LT. The following applies: read-out: IC50 of previously reported toxin entry inhibitors; cited from earlier work.
Assay [2] relates to anthrax lethal toxin (LT). The assay is described as follows: cells. The class given is cell-based, murine.
Assay [3] concerns influenza A/WSN/33 virus. Type of assay: cell-based.
In assay [4] the test system is anthrax lethal toxin (LT). Type of assay: cell-based.
The mark [5] stands for this setting: Mus musculus, RAW264.7, read-out: IC50, inhibition of LT-induced cell death.
Setting [6] is: Mus musculus, RAW264.7, read-out: IC50 (In uM).

Consider `CCN(CC)CCCC(C)Nc1ccnc2cc(Cl)ccc12` (centres unmarked) [chloroquine], for which the IC50 (commonly the point on the concentration scale where inhibition reaches its midpoint) in assay [1] was 100000 nM.

Consider `Cc1cccc(C)c1/N=C(\N)N/N=C/c1ccc(Br)cc1` [Compound 22, 2-(4-BROMOBENZYLIDENE)-N′-(2,6-DIMETHYLPHENYL)HYDRAZINECARBOXIMIDAMIDE], for which, in assay [2] (setting [5]), the half-inhibitory concentration (IC50) stood at 13.8 µM.

In the case of `Cc1cccc(C)c1NC(=O)N/N=C/c1ccc(C(C)C)cc1` [Compound 13m, N^1-(4-I-PROPYLBENZYLIDENE)-N^4-(2,6-DIMETHYLPHENYL)SEMICARBAZONE], the IC50 stood at 6.5 µM in assay [2] (Mus musculus, RAW264.7) and 6.48 µM in assay [2] (setting [6]).

As for `Cc1cccc(C)c1NC(=O)N/N=C/c1c(F)cc(Br)cc1F` [Compound 13y, N^1-(4-BROMO-2,6-DIFLUOROBENZYLIDENE)-N^4-(2,6-DIMETHYLPHENYL)SEMICARBAZONE], the IC50 in assay [2] was determined as 4 ± 0.8 µM; in assay [2] (Mus musculus, RAW264.7) it was 3.9 µM; in assay [2] (setting [6]), 3.95 µM.

Regarding `C/C(=N\NC(=O)Nc1c(C)cccc1C)c1ccc(Br)cc1` [Compound 15, N^1-(4-BROMOPHENYLETHYLIDENE)-N^4-(2,6-DIMETHYLPHENYL)SEMICARBAZONE], the IC50 amounted to 2.5 µM in assay [2] (Mus musculus, RAW264.7); 2.5 µM in assay [2] (setting [6]); 2.5 µM in assay [2] (setting [5]).

Consider `CC(C)(C)NC(=O)N/N=C/c1ccc(Br)cc1` [Compound 10, N^1-(4-BROMOBENZYLIDENE)-N^4-(TERT-BUTYL)SEMICARBAZONE], for which the “protection of cells from LT (in words)” value in assay [2] was “not protective”. Also, the concentration for half-maximal inhibition (IC50) in assay [2] (Mus musculus, RAW264.7) is over 25 µM.

As for `Cc1ccc(/C=N/NC(=O)Nc2c(C)cccc2C)cc1F` [Compound 13d, N^1-(3-FLUORO-4-METHYLBENZYLIDENE)-N^4-(2,6-DIMETHYLPHENYL)SEMICARBAZONE], the IC50 amounted to 1.8 µM in assay [2] (Mus musculus, RAW264.7) and 1.81 µM in assay [2] (setting [6]).

With `C#Cc1ccc(/C=N/NC(=O)Nc2c(C)cccc2C)cc1` [Compound 13o, N^1-(4-ETHYNYLBENZYLIDENE)-N^4-(2,6-DIMETHYLPHENYL)SEMICARBAZONE], the half-inhibitory concentration (IC50) amounted to 1.7 µM in assay [2] (Mus musculus, RAW264.7) and 1.69 µM in assay [2] (setting [6]).

For the compound `CCOC(=O)C1=C[C@@H](OC(CC)CC)[C@H](NC(C)=O)[C@@H](N)C1` [oseltamivir, reference compound], the “influenza virus infection (reporter activation)” value in assay [3] is reported as “exhibited no protection”.

Take `COc1ccc(/C=N/NC(=O)Nc2c(C)cccc2C)cc1` [Compound 13n, N^1-(4-METHOXYBENZYLIDENE)-N^4-(2,6-DIMETHYLPHENYL)SEMICARBAZONE]: the half-inhibitory concentration (IC50) is over 12.5 µM in assay [2] (Mus musculus, RAW264.7) and over 12.5 µM in assay [2] (setting [6]).

Take `Cc1cccc(C)c1NC(=O)NN` [Compound 6, N-(2,6-DIMETHYLPHENYL) SEMICARBAZIDE]: the “protection of cells from LT (in words)” value in assay [2] is listed as “did not prevent toxin-induced cell death”.

`Cc1ccc(NC(=O)N/N=C/c2ccc(Br)cc2)c(C)c1` [Compound 9a, N^1-(4-BROMOBENZYLIDENE)-N^4-(2,4-DIMETHYLPHENYL)SEMICARBAZONE]: the “protection of cells from LT (in words)” value in assay [2] is “not protective”. The IC50 in assay [2] (Mus musculus, RAW264.7) was over 25 µM.

Regarding `Cc1cccc(C)c1NC(=O)N/N=C/c1ccc(Br)cc1Cl` [Compound 13z, N^1-(4-BROMO-2-CHLOROBENZYLIDENE)-N^4-(2,6-DIMETHYLPHENYL)SEMICARBAZONE], the IC50 in assay [2] (Mus musculus, RAW264.7) amounted to 3.2 µM; in assay [2] (setting [6]) it was 3.24 µM.

For the compound `Cc1cccc(C)c1NC(=O)N/N=C/c1ccc(C#N)cc1` [Compound 13s, N^1-(4-CYANOMETHYLBENZYLIDENE)-N^4-(2,6-DIMETHYLPHENYL)SEMICARBAZONE], the IC50 in assay [2] is 2.5 ± 0.3 µM; in assay [2] (Mus musculus, RAW264.7) it was 2.45 µM; in assay [2] (setting [6]), 2.45 µM.

`Cc1cccc(C)c1NC(=O)N/N=C/c1ccc(C(F)(F)F)cc1` [Compound 13r, N^1-(4-TRIFLUOROMETHYLBENZYLIDENE)-N^4-(2,6-DIMETHYLPHENYL)SEMICARBAZONE]: the 50% inhibitory concentration (IC50) in assay [2] (Mus musculus, RAW264.7) came to 2.6 ± 0.5 µM; in assay [2] (setting [6]), 2.59 µM.

As for `Cc1cccc(C)c1NC(=O)N/N=C/c1ccc(Cl)cc1` [Compound 13a, N^1-(4-CHLOROBENZYLIDENE)-N^4-(2,6-DIMETHYLPHENYL)SEMICARBAZONE], the IC50 in assay [2] is 1.7 ± 0.2 µM; in assay [2] (Mus musculus, RAW264.7), 1.65 µM; in assay [2] (setting [6]) it was 1.65 µM.

`Cc1cccc(C)c1NC(=O)N/N=C/c1c(F)c(F)c(N=[N+]=[N-])c(F)c1F` [Compound 5, N^1-(4-AZIDO-2,3,5,6-TETRAFLUOROBENZYLIDENE)-N^4-(2,6-DIMETHYLPHENYL)SEMICARBAZONE]: the “protection against LT after UV irradiation and washout (media exchange)” value (“protection against LT … (media exchange)” below) in assay [4] is “statistically significant protection; also recorded: most effective irreversible protection; also recorded: conferred irreversible resistance to LT”. The “protection of cells from LT (in words)” value in assay [2] is listed as “poor inhibitor; also recorded: only weakly protective”.

As for `CCc1cccc(CC)c1NC(=O)N/N=C/c1ccc(Br)cc1` [Compound 9c, N^1-(4-BROMOBENZYLIDENE)-N^4-(2,6-DIETHYLPHENYL)SEMICARBAZONE], the IC50 in assay [2] was over 12.5 µM; in assay [2] (Mus musculus, RAW264.7) it was 16.7 µM; in assay [2] (setting [6]) it was over 12.5 µM; in assay [2] (setting [5]), over 12.5 µM.

As to `O=C(N/N=C/c1ccc(Cl)cc1)Nc1ccccc1` [Compound 11, N^1-(4-Cl-benzylidene)-N^4-phenylsemicarbazone, reference compound], in assay [2], the “protection of cells from LT (in words)” value is listed as “not protective”. Further, the IC50 in assay [2] (Mus musculus, RAW264.7) is over 25 µM.

Regarding `NC(=O)c1ncn([C@@H]2O[C@H](CO)[C@@H](O)[C@H]2O)n1` [ribavirin, reference compound], the “influenza virus infection (reporter activation)” value in assay [3] is “effectively blocked reporter activation”.

In assay [2] (Mus musculus, RAW264.7), `Cc1cccc(C)c1NC(=O)N/N=C/c1ccc(Br)c(F)c1` [Compound 13aa, N^1-(4-BROMO-3-FLUOROBENZYLIDENE)-N^4-(2,6-DIMETHYLPHENYL)SEMICARBAZONE] came in with an IC50 of 1.5 µM.

As for `Cc1ccc(/C=N/NC(=O)Nc2c(C)cccc2C)cc1` [Compound 13k, N^1-(4-METHYLBENZYLIDENE)-N^4-(2,6-DIMETHYLPHENYL)SEMICARBAZONE], the IC50 came to 2.9 µM in assay [2] (Mus musculus, RAW264.7) and 2.9 µM in assay [2] (setting [6]).

On to `Cc1cccc(C)c1NC(=O)N/N=C/c1cccs1` [Compound 13w, N^1-(THIOPHENE-2-YLMETHYLENE)-N^4-(2,6-DIMETHYLPHENYL)SEMICARBAZONE], for which the concentration for half-maximal inhibition (IC50) in assay [2] was over 25 µM; in assay [2] (Mus musculus, RAW264.7), over 25 µM.

With `Cc1cccc(C)c1NC(=O)N/N=C/c1ccc(N=[N+]=[N-])cc1` [Compound 4, N^1-(4-AZIDOBENZYLIDENE)-N^4-(2,6-DIMETHYLPHENYL)SEMICARBAZONE], the “protection against LT … (media exchange)” value in assay [4] is “retained viability; also recorded: statistically significant protection; also recorded: conferred irreversible resistance to LT”. Besides, the half-inhibitory concentration (IC50) is 2.8 µM in assay [2] (Mus musculus, RAW264.7); 2.82 µM in assay [2] (setting [6]); about 3 µM in assay [2] (setting [5]).

Regarding `Cc1cccc(C)c1NC(=O)N/N=C/c1ccc(F)cc1F` [Compound 13f, N^1-(2,4-DIFLUOROBENZYLIDENE)-N^4-(2,6-DIMETHYLPHENYL)SEMICARBAZONE], the IC50 is 2.1 µM in assay [2] (Mus musculus, RAW264.7); 2.14 µM in assay [2] (setting [6]); 2.1 µM in assay [2] (setting [5]).

On to `Cc1ccccc1/C=N/NC(=O)Nc1c(C)cccc1C` [Compound 13i, N^1-(2-METHYLBENZYLIDENE)-N^4-(2,6-DIMETHYLPHENYL)SEMICARBAZONE], for which the IC50 in assay [2] (Mus musculus, RAW264.7) is over 25 µM; in assay [2] (setting [6]), over 25 µM.

Take `Cc1cccc(C)c1NC(=O)N/N=C/c1ccc(Br)cc1F` [Compound 2, N^1-(4-BROMO-2-FLUOROBENZYLIDENE)-N^4-(2,6-DIMETHYLPHENYL)SEMICARBAZONE]: the “protection of cells from LT (in words)” value in assay [2] is on record as “mid-nanomolar levels”. The IC50 in assay [2] (Mus musculus, RAW264.7) amounted to 0.4 µM; in assay [2] (setting [6]) it was 0.4 µM; in assay [2] (setting [5]), 0.4 µM.

For the compound `Cc1cccc(C)c1NC(=O)NNCc1ccc(Br)cc1` [Compound 14, 2-(4-BROMOBENZYL)-N-(2,6-DIMETHYLPHENYL)HYDRAZINECARBOXAMIDE], the “protection of cells from LT (in words)” value in assay [2] was “not protective”. The concentration for half-maximal inhibition (IC50) in assay [2] (Mus musculus, RAW264.7) is over 25 µM; in assay [2] (setting [6]) it was over 25 µM.

Turning to `Cc1cccc(C)c1NC(=O)N/N=C/c1ccc(Br)c(Cl)c1` [Compound 13ab, N^1-(4-BROMO-3-CHLOROBENZYLIDENE)-N^4-(2,6-DIMETHYLPHENYL)SEMICARBAZONE], in assay [2] (Mus musculus, RAW264.7), half-maximal inhibition (IC50) was put at 3.4 µM.

On to `Cc1cccc(C)c1NC(=O)N/N=C/c1ccc(N=[N+]=[N-])cc1F` [Compound 3, N^1-(4-AZIDO-2-FLUOROBENZYLIDENE)-N^4-(2,6-DIMETHYLPHENYL)SEMICARBAZONE], for which the “protection against LT … (media exchange)” value in assay [4] was “did not provide protection; also recorded: did not offer statistically significant protection”. Besides, the IC50 in assay [2] (setting [5]) was found to be 2.2 µM.

On to `CCN(CC)CCCC(C)Nc1c2ccc(Cl)cc2nc2ccc(OC)cc12` (centres unmarked) [quinacrine], for which, in assay [1], the IC50 was 40000 nM.

On to `CCc1ccc(/C=N/NC(=O)Nc2c(C)cccc2C)cc1` [Compound 13l, N^1-(4-ETHYLBENZYLIDENE)-N^4-(2,6-DIMETHYLPHENYL)SEMICARBAZONE], for which the IC50 in assay [2] (Mus musculus, RAW264.7) amounted to 3 µM; in assay [2] (setting [6]) it was 3.02 µM.

As for `Cc1cccc(C)c1NC(=S)N/N=C/c1ccc(Br)cc1` [Compound 19a, N^1-(4-BROMOBENZYLIDENE)-N^4-(2,6-DIMETHYLPHENYL)THIOSEMICARBAZONE], the IC50 in assay [2] (Mus musculus, RAW264.7) was determined as 1.52 µM; in assay [2] (setting [6]), 1.52 µM; in assay [2] (setting [5]) it was 1.5 µM.

On to `Cc1cccc(C)c1NC(=O)N/N=C/c1ccco1` [Compound 13u, N^1-(FURAN-2-YLMETHYLENE)-N^4-(2,6-DIMETHYLPHENYL)SEMICARBAZONE], for which, in assay [2] (Mus musculus, RAW264.7), the IC50 is over 25 µM.

Turning to `Cc1cccc(C)c1NC(=O)N/N=C/c1ccc(I)cc1` [Compound 13q, N^1-(4-IODOBENZYLIDENE)-N^4-(2,6-DIMETHYLPHENYL)SEMICARBAZONE], the concentration for half-maximal inhibition (IC50) in assay [2] came out at 1.8 ± 0.3 µM; in assay [2] (Mus musculus, RAW264.7), 1.77 µM; in assay [2] (setting [6]), 1.77 µM.

Turning to `COc1cc(OC)c(/C=N/NC(=O)Nc2c(C)cccc2C)c(OC)c1` [Compound 13h, N^1-(2,4,6-TRIMETHOXYBENZYLIDENE)-N^4-(2,6-DIMETHYLPHENYL)SEMICARBAZONE], the concentration for half-maximal inhibition (IC50) in assay [2] (Mus musculus, RAW264.7) was over 25 µM; in assay [2] (setting [6]), over 25 µM.

The values are drawn from patent US10730848B2 (priority 2013, dated 2020).
